Patent US8541473B2, “3-aminoxalyl-aminobenzamide derivatives and insecticidal and miticidal agents containing same as active ingredient” (Agro-Kanesho Co., Ltd., priority 2009, dated 2013)

Tests used:
Type in all cases: in vivo
[1] = test system: larvae of Plutella xylostella; test: Insecticidal effect on larvae of Plutella xylostella (spray on potted Chinese cabbage); settings: comparative compounds, result in words; stated against the 500 ppm result
Protocol: The seeds of Chinese cabbage were sowed in a pot and then the seedlings were raised over 3 weeks. A water-diluted emulsion prepared according to the procedures used in the foregoing drug-preparation Example 1 was sufficiently sprayed on the leaves of these potted plants using an air brush (one concentration, once repeated). After the drug-containing liquid was air-dried, the plants were kept in a thermostatic chamber maintained at 25° C. and the larvae of the insect were set free. After 5 days from the release of the larvae, the latter was examined for whether they were died or not and whether they were in agony or not and the rates of killed insects (larvae) (%) were determined, while the agonized larvae were regarded as killed ones. In this respect, the comparative compounds used in this test were compounds A and B disclosed in JP-A-2006-306771 (Patent Document 25).

[2] = test system: female adults of Tetranychus urticae; test: Miticidal effect on adults of Tetranychus urticae (spray on bean leaf-disks); settings: comparative compounds, result in words; stated against the 50 ppm result
Protocol: A polyethylene cup having a volume of 430 ml and filled with water was covered with a cap in which a hole (diameter: about 5 mm) had been formed at the center thereof. A cut having a width of about 5 mm was made on a circular filter paper having a diameter of 6.5 cm, the strip-like portion of the filter paper, which hung down, was inserted into the cup through the hole thereof in such a manner that the portion was immersed in the water contained in the cup, and absorbent cotton was put on the filter paper so that the water in the cup was always supplied to the absorbent cotton. Then, two leaf-disks (2 cm×5 cm) prepared from the primary leaves of bean were put on the absorbent cotton and then these two leaf-disks were inoculated with 10 female adults of Tetranychus urticae. This cup was placed in a cylinder of acrylic resin having a height of 50 cm and an inner diameter of 10 cm and a water-diluted emulsion prepared according to the same procedures used in the foregoing drug-preparation Example 1 was then sprayed on each cup in an amount of 1.35 ml per cup using an air brush (one concentration, once repeated). After the agricultural chemical was sprayed, the cups were kept in a thermostatic chamber maintained at a temperature of 25° C. After 4 days from the drug-spray, the adults were examined, under the observation by a prism binocular, for whether they were died or not and whether they were in agony or not and the rates of killed mites (adults) (%) were determined, while the agonized adults were regarded as killed ones. In this respect, the comparative compounds used in this test were compounds A and B disclosed in JP-A-2006-306771.

nymphs of Myzus persicae = test: Effect of killing larvae of Myzus persicae (leaf piece immersion); settings: comparative compounds, result in words; stated against the 50 ppm result
Protocol: Three each of adults of Myzus persicae were inoculated on a cut piece (having a size of 3 cm×4 cm) of the leaf of Chinese cabbage and they were made breed for 48 hours within a thermostatic chamber maintained at a temperature of 25° C. After the removal of the adults, each cut piece of the leaf was immersed in a water-diluted emulsion prepared according to the same procedures used in the foregoing Drug-Preparation Example 1 for 5 seconds, and then kept in a thermostatic chamber maintained at 25° C. On 7th day after the foregoing treatment, the nymphs were inspected for whether they were died or not and whether they were in agony or not and the rates (%) of killed nymphs of the plant lice were determined, while the agonized nymphs were regarded as killed ones. In this respect, the comparative compounds used in this test were compounds A and B disclosed in JP-A-2006-306771.

Measured: insecticidal effect

CCOC(=O)C(=O)Nc1cccc(C(=O)Nc2c(C)cc(C(F)(C(F)(F)F)C(F)(F)F)cc2C)c1 [compound B, reference compound]
did not show any insecticidal effect: all assays above
